From paper PMC6458850, “CXXC5 mediates growth plate senescence and is a target for enhancement of longitudinal bone growth” (Life Science Alliance, 2019)

System: growth plates of proximal tibiae
Experiment: Growth plate senescence and longitudinal bone growth in KY19382-treated mice
Type: in vivo, mouse
Description: Figure 5. The effects of KY19382 on growth plate senescence and longitudinal bone growth. (A-I) KY19382 (0.1 mg/kg) was administered to 7-wk-old mice (A-E) or 3-wk-old mice (F-I) by daily intraperitoneal injection for 2 wk (n = 7). H&E staining, IHC analyses with the indicated antibodies, and TRAP staining in the growth plates of proximal tibiae treated with KY19382 (A, F). Quantitative analyses of the cell number per column (mean ± SEM, n = 7; t test, ***P < 0.0005) (B) or the height (mean ± SEM, n = 7; t test, ***P < 0.0005) (G) of resting zone and proliferative zone (RZ&PZ) and hypertrophic zone (HZ) in the growth plates of proximal tibiae. Quantitative analyses of BrdU-positive cells in the growth plates (mean ± SEM, n = 5; t test, ***P < 0.0005) (C, H). Quantitative analyses of the number of TRAP-positive foci along 250 μm of the cartilage/bone interface (mean ± SEM, n = 3; t test, *P < 0.05) (D, I). Immunoblot analyses with the indicated antibodies in the growth plate of proximal tibiae of mice treated with KY19382 (E). Scale bars, 50 μm. (J) 3-wk-old mice were intraperitoneally injected with KY19382 (0.1 mg/kg) daily for 10 wk. Representative radiographs are shown (left), and tibial length was measured (right) (mean ± SEM, n = 7-15; t test, ***P < 0.0005). The area within the dashed lines indicates the growth plate zone. n.s., no significance; TRAP, tartrate-resistant acid phosphatase. Cxxc5^-/- mice were established in a previous study ([Kim et al, 2015]). To manipulate growth plate senescence by estrogen, 3-wk-old Cxxc5^+/+ and Cxxc5^-/- male mice received weekly i.m. injections of either 70 μg/kg estradiol (E2) cypionate (Sigma-Aldrich) or vehicle (cottonseed oil) for 3 wk. To investigate the effects of KY19382 treatment on longitudinal bone growth, C57BL/6 male mice were purchased from KOATECH (Gyeonggido, Korea). KY19382 (0.1 mg/kg) was administered daily by i.p. injection to 3- and 7-wk-old mice for 2 wk or to 3-wk-old mice for 10 wk. For BrdU labeling experiments, the mice were i.p. injected with 50 mg/kg BrdU (Sigma-Aldrich) before 24 h to euthanize. All animal procedures were approved by the Institutional Animal Care and Use Committee of Yonsei University (Korea) and conducted based on the guidelines of the Korean Food and Drug Administration. Plain radiographs were taken using an X-ray apparatus (KODAK DXS 4000 Pro SYSTEM; Carestream Health). The tissues were fixed in 4% PFA, decalcified in 10% EDTA (pH 7.4), dehydrated, embedded in paraffin, and sectioned to 4-μm thickness (Leica Microsystems). The tissues sections were rehydrated and used for further analyses, including H&E, TRAP, and IHC staining. To perform IHC staining, the sections were incubated with citrate buffer (pH 6.0) at 80°C for 30 min, with 0.05% trypsin working solution (pH 7.8) for 30 min at 37°C, or with 0.5% pepsin (Sigma-Aldrich) for 15 min at 37°C. Then, the sections were blocked with 5% normal goat serum (Vector Laboratories) and 0.3% Triton X-100 in PBS for 1 h at room temperature. For 3,3'-diaminobensidine (DAB) staining, the sections were incubated with 0.345% H2O2 for 15 min. Before incubating the sections with mouse primary antibody, mouse IgG was blocked using a M.O.M kit (Vector Laboratories). The sections were incubated at 4°C overnight with the following primary antibodies: anti-β-catenin (#610154; 1:50; BD Bioscience), anti-CXXC5 (1:200; lab-made) anti-BrdU ([…]; 1:200; DAKO), anti-COL2A1 (PA5-11462; 1:100; Thermo Fisher Scientific), anti-Ki67 (ab15580; 1:200; Abcam), and anti-RUNX2 (ab23981; 1:200; Abcam). Then, the sections were incubated at room temperature for 1 h with biotinylated anti-mouse (BA-9200; 1:200; Vector Laboratories) or biotinylated anti-rabbit (BA-1000; 1:200; Vector Laboratories) secondary antibodies. The sections were then incubated in avidin-biotin complex solutions (Vector Laboratories), stained with a DAB kit (Vector Laboratories) for 3-30 min, and counterstained with methyl green (Sigma-Aldrich). […]

[1] = 3-wk-old mice, 0.1 mg/kg i.p. daily for 2 wk
[2] = 7-wk-old mice, 0.1 mg/kg i.p. daily for 2 wk

## CON=C1C(=C2C(=O)Nc3cc(Cl)c(Cl)cc32)Nc2ccccc21 [KY19382, 5,6-dichloroindirubin-3′-methoxime]
[1]
  BrdU-positive cells in growth plate: elevated
  height of each growth plate zone: elevated
3-wk-old mice, 0.1 mg/kg i.p. daily for 2 wk, vs vehicle
  number of TRAP-positive foci in the growth plate/trabecular interface: not different
3-wk-old mice, 0.1 mg/kg i.p. daily for 10 wk, vs vehicle
  length of tibiae: significantly increased
[2]
  nuclear β-catenin in growth plate chondrocytes: dramatically increased
  numbers of proliferative and hypertrophic chondrocytes per column: increased numbers
  total growth plate height (COL2A1 immunostaining): significantly increased
7-wk-old mice, 0.1 mg/kg i.p. daily for 2 wk, vs vehicle
  TRAP-positive foci at cartilage/bone interface: elevated
